Activity calls are given as the source filed them. Unless noted, the calls are words filed in the database; no cut-off is given here.
Key:
Assay type in all cases: functional
[1] = biological target: Cyclin-dependent kinase 19 (Homo sapiens, UniProt Q9BWU1); assay: Navigating the Kinome. Panel member name: CDC2L6
Focal adhesion kinase 1 = Focal adhesion kinase 1 (Homo sapiens, UniProt Q05397);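 further: measured as one member of a kinome panel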
[2] = THP-1 cell cytotoxicity, cytotoxicity control, set 6 (AID 602433); conditions: Mycobacterium tuberculosis
[3] = HepG2 cell cytotoxicity, cytotoxicity control, set 6 (AID 602432); conditions: Mycobacterium tuberculosis
[4] = viability loss in Vero cells – cell-based, purified and synthesized samples, set 8, cytotoxicity control for M. tuberculosis inhibitor project (AID 602431); conditions: Mycobacterium tuberculosis

Chain of Cyclin-dependent kinase 19 (Q9BWU1 whole entry): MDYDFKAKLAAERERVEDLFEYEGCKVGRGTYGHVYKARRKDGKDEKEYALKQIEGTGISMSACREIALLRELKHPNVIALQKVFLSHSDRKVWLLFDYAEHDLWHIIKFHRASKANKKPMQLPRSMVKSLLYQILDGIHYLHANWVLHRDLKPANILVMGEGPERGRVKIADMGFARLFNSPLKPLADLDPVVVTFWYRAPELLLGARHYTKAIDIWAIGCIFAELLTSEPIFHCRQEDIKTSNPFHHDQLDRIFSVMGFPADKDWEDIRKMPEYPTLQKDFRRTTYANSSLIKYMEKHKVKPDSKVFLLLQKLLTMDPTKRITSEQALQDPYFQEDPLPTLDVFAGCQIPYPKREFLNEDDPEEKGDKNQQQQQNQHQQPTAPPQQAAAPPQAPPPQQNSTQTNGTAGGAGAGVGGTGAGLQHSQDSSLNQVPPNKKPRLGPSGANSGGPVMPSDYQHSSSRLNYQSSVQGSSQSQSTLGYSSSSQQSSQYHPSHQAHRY
Chain of Focal adhesion kinase 1 (Q05397 whole entry): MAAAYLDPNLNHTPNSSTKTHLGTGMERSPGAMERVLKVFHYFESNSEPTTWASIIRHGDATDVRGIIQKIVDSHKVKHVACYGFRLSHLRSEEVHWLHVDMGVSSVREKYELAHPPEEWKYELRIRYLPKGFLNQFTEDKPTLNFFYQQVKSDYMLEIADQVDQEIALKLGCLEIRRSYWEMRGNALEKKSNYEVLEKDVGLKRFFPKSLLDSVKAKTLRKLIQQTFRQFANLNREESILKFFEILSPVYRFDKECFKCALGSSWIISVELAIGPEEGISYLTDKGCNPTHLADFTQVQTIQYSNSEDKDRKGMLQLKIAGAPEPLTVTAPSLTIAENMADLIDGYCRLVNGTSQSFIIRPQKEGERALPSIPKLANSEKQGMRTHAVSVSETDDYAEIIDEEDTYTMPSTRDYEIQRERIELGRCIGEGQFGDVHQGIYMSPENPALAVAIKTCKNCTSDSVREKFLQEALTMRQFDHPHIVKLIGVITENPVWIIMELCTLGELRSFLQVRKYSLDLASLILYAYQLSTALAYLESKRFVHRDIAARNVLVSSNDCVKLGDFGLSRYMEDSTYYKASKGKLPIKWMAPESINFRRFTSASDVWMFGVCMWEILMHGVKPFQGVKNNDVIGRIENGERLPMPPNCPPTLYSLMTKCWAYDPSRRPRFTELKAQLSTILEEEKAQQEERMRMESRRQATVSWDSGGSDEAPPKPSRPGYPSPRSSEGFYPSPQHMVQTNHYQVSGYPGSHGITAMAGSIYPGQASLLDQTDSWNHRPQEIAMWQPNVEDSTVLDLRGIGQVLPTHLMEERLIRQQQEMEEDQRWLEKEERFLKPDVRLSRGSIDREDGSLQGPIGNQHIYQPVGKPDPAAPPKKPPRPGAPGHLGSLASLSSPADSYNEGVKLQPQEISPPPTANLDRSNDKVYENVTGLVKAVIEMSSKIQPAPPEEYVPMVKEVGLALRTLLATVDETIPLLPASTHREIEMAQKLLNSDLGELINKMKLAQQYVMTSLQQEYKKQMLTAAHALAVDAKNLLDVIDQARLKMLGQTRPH

Row | SMILES | Ki [1] | Ki (Focal adhesion kinase 1) | CC50 [2] | CC50 [3] | CC50 [4]
1 | COc1cccc(C(=O)Nc2cccc(-c3nc4sccn4c3-c3ccnc(Nc4ccc(N5CCOCC5)cc4)n3)c2)c1 | 10 µM (active) | 0.631 µM (active) |  |  | 
2 | O=C(NCc1ccc(C(=O)N2CCC(c3ccccc3)CC2)cc1)NC1CCCCC1 |  |  | 65.8 µM (active) | > 50 µM (inconclusive) | 82.5 µM (active)

— ChEMBL document CHEMBL1201862, “PubChem BioAssay data set” (2004)
